Like-named read-outs stand apart in the source and are kept apart here.
What was measured:
[1] = system: L. donovani strain 9515 amastigotes; assay: Anti-amastigote assay (intramacrophage, THP-1 host, resazurin); format: cell-based; conditions: for IC50: L. donovani 9515, read-out: 9515 IC50 ± SD, Amastigote; for Selectivity index SI6: L. donovani 9515: IC50 THP‐1/IC50 amastigote; for Selectivity index SI5: L. donovani 9515: IC50 Vero/IC50 amastigote; for Specificity index SpI3: L. donovani 9515: IC50 promastigote/IC50 amastigote
Experimental: (§1) The activities of synthesized compounds against the intramacrophage parasites of the three Leishmania strains were evaluated using a modified, resazurin‐based method (Jain et al., [2012]; Njanpa et al., [2021]). Suspension cultures of human acute monocytic leukemia (THP‐1) cells were maintained in RPMI‐1640 medium (Sigma Aldrich) supplemented with 10% FBS and 1% penicillin–streptomycin, at 37°C and 5% CO2 in a humidified atmosphere. Duplicate 96‐well plates (for respective anti‐amastigote and cytotoxicity assays) were seeded with 200 μl of a 2.5 × 10^5 cells/ml suspension treated with 25 ng/ml phorbol 12‐myristate 13‐acetate (PMA), followed by 48‐h incubation to promote differentiation into adherent macrophages.
(§2) For the anti‐amastigote assay, differentiated plates were carefully washed with PBS, followed by the addition of 200 μl of stationary phase promastigotes in RPMI 1640 medium with 2% FBS. An MOI of 30:1 was used for all three Leishmania strains. The parasite‐treated plates were incubated for 24 h at 32°C (L. major) or 37°C (L. donovani) and 5% CO2 to promote infection of the macrophages. […] Blanks were represented by growth medium without cells, as well as parasite‐free THP‐1 cells. The treated plates were incubated for 72 h.
(§3) After incubation, the plates were gently washed three times with PBS to remove any remaining extracellular parasites. The wells were then treated with 20 μl of 0.05% sodium dodecyl sulfate in PBS for 30 s to lyse the host macrophages. Lysis was terminated by adding 180 μl promastigote growth medium with 10% FBS. To initiate the resazurin assay, 10 μl of resazurin solution (0.025% in PBS) was added to all wells and the plates were incubated for 24 h at 32°C (L. major) or 37°C (L. donovani) and 5% CO2. Absorbance measurements, calculations, and IC50 determinations were performed as described for the antipromastigote assay (Supinfo S1).

[2] = system: L. donovani strain 1S amastigotes; assay: as above; format: cell-based; conditions: for IC50: L. donovani 1S, read-out: 1S IC50 ± SD, Amastigote; for Selectivity index SI4: L. donovani 1S: IC50 THP‐1/IC50 amastigote; for Selectivity index SI3: L. donovani 1S: IC50 Vero/IC50 amastigote; for Specificity index SpI2: L. donovani 1S: IC50 promastigote/IC50 amastigote
Experimental: as §1, §2, §3

[3] = system: L. major strain IR‐173 amastigotes; assay: as above; format: cell-based; conditions: for IC50: read-out: Antileishmanial activity, IC50 ± SD, Amastigote; for Specificity index SpI1: L. major IR‐173: IC50 promastigote/IC50 amastigote; for Selectivity index SI2: L. major: IC50 THP‐1/IC50 amastigote
Experimental: as §1, §2, §3

[4] = system: Clone 15 HL‐60 promyelocytic leukemia cells; assay: Anticancer assay (resazurin); format: cell-based, human; conditions: for IC50: read-out: Anticancer activity, IC50 ± SD, Clone 15 HL‐60; for Preliminary screening, growth inhibition, Clone 15 HL‐60: cutoff 50% growth inhibition at 10 μM; for Selectivity Index SI1 (anticancer): IC50 Vero (Table 2)/IC50 Clone 15 HL‐60
Experimental: (§4) The anticancer activities of synthesized compounds were evaluated using a resazurin‐based assay (Czekanska, [2011]). Accordingly, a screening method similar to that of the cytotoxicity assay was used to screen for anticancer activity, using human melanoma (A375), promyelocytic leukemia (Clone 15 HL‐60), lung cancer (A549), and breast cancer (MCF7) cells. The culture and assay methods are provided in the Supinfo S1.
(§5) The potential anticancer activities of synthesized compounds were screened using the resazurin assay. ^5 Breast adenocarcinoma (MCF7, ATCC® HTB-22™) and human melanoma (A375, ATCC® CRL-1619™) cells were cultured in Hyclone Dulbecco's modified Eagle’s medium with high glucose (Separations) supplemented with 10 % fetal bovine serum (FBS) (Thermofisher Scientific) and 1 % L-glutamine, penicillin-streptomycin and non-essential amino acids (Lonza). Human lung carcinoma (A549, ATCC®, CCL-185™) cells were cultured in Ham’s F12K medium supplemented with 10% FBS and 1% L-glutamine, penicillin-streptomycin and non-essential amino acids. Human promyelocytic leukemia (Clone 15 HL-60, ATCC® CRL-1946™) cells were cultured in RPMI-1640 medium (Sigma Aldrich) supplemented with 10% FBS and 1% penicillin-streptomycin. The cell lines were maintained in a humidified atmosphere at 37 °C and 5% CO2.
(§6) For the resazurin assay, 96 well plates were prepared with 100 μL of 100 000 cells/mL MCF7 cell suspension, 100 μL of 50 000 cells/mL A375 cell suspension, 100 μL of 25 000 cells/mL A549 cell suspension, or 50 μL of 50 000 cells/mL HL-60 cell suspension. The MCF7, A375 and A549 cell plates were incubated for 24 hours to allow adherence of the cells to the plate surface, after which the growth medium is replaced with 100 μL medium containing compounds. […] The cell lines were treated with: (i) parthenolide (Sigma Aldrich) (positive control); (ii) growth medium and solvent (negative control to compensate for possible solvent effects); (iii) growth medium and experimental compound solutions. […] Blanks contained growth medium without cells. The treated plates were incubated for 48 hours.
(§7) To initiate the resazurin assay, 50 μL of sterile-filtered resazurin sodium salt (Sigma Aldrich) solution (0.01 % in PBS) was added and the plates incubated for 2 hours (MCF7, A375 and A549 cells) or 24 hours (HL-60 cells). Absorbance was measured at 570 and 600 nm using the Thermofisher Scientific GO Multiscan plate reader. Data analysis was performed for each biological replicate using SkanIt 4.0 Research Edition software. Further data analysis, calculations and IC50 determinations were identical to that of the antileishmanial and cytotoxicity assays.
(§8) For the final IC50 of each compound, the mean IC50 of the biological replicates were calculated with standard deviation (SD).

A375 melanoma cells = assay: Anticancer assay (resazurin); format: cell-based, human; conditions: for IC50: n = 3, read-out: Anticancer activity, IC50 ± SD, A375
Experimental: as §4, §5, §6, §7, §8

[5] = Basal cytotoxicity, resazurin assay; conditions: African green monkey
Experimental: The assay method is available in the Supinfo S1.
African green monkey kidney epithelial (Vero) cells (Cellonex, South Africa) were cultured and the basal cytotoxicity of the synthesized compounds with antileishmanial and/or anticancer activity was evaluated using the resazurin assay, as described in Mangwegape et al. ^4 Emetine served as the standard cytotoxic drug. Further use of reference drugs, controls, data analysis, calculations and IC50 determinations were identical to that of the antileishmanial assay.

[6] = Cytotoxicity on differentiated host THP-1 macrophages, resazurin assay; format: cell-based, human; conditions: human, PMA-differentiated THP-1 macrophages, read-out: Cytotoxicity, IC50 ± SD, THP‐1
Experimental: Duplicate 96‐well plates (for respective anti‐amastigote and cytotoxicity assays) were seeded with 200 μl of a 2.5 × 10^5 cells/ml suspension treated with 25 ng/ml phorbol 12‐myristate 13‐acetate (PMA), followed by 48‐h incubation to promote differentiation into adherent macrophages.
Cytotoxicity of the compounds on the differentiated host THP-1 cells were also evaluated. As mentioned, duplicate plates of differentiated THP-1 cells were prepared during the anti-amastigote assay. These plates were incubated for 72 hours to differentiate, instead of replacing the growth medium with parasite-containing medium after 48 hours. […] Blanks were growth medium without cells. The treated plates were incubated for 72 hours, followed by the addition of 50 μL of resazurin solution (0.01% in PBS) to each well and 24-hour incubation.

[7] = Leishmania major, THP-1, L. major IR‐173

Cc1ccc(S(=O)(=O)N/N=C/c2ccc([N+](=O)[O-])o2)cc1 [2c, (E)-4-Methyl-N'-[(5-nitrofuran-2-yl)methylene]benzenesulfonohydrazide]
IC50 ([1]; Leishmania donovani, THP-1): > 10 µM | IC50 ([2]; Leishmania donovani, THP-1): > 10 µM | IC50 [3, 7]: > 10 µM | IC50 ([4]; Homo sapiens, HL-60, n = 3): > 10 µM | Preliminary screening, growth inhibition, Clone 15 HL‐60 [4]: qualified | IC50 (A375 melanoma cells; Homo sapiens, A-375): > 10 µM

CC(C)c1ccc(S(=O)(=O)N/N=C/c2ccc([N+](=O)[O-])o2)cc1 [2d, (E)-4-Isopropyl-N'-[(5-nitrofuran-2-yl)methylene]benzenesulfonohydrazide]
IC50 ([1]; Leishmania donovani, THP-1): > 10 µM | IC50 ([2]; Leishmania donovani, THP-1): > 10 µM | Specificity index SpI1 [3]: 0.57 | IC50 ([3]; L. major IR‐173): 8.3 ± 0.78 µM | Selectivity index SI2 [3]: 11 | IC50 [3, 7]: < 10 µM | IC50 ([5]; Vero cells (kidney epithelial)): 22.2 ± 0.8 µM | IC50 at 72 h [6]: 93.1 ± 3.51 µM | IC50 ([4]; Homo sapiens, HL-60, n = 3): < 10 µM | Selectivity Index SI1 (anticancer) [4]: 3 | IC50 ([4]; n = 3): 7.85 ± 0.38 µM | IC50 (A375 melanoma cells; Homo sapiens, A-375): > 10 µM

CC(C)(C)c1ccc(S(=O)(=O)N/N=C/c2ccc([N+](=O)[O-])o2)cc1 [2f, (E)-4-(tert-Butyl)-N'-[(5-nitrofuran-2-yl)methylene]benzenesulfonohydrazide]
Selectivity index SI6 [1]: 9 | Selectivity index SI5 [1]: 3 | Specificity index SpI3 [1]: 0.36 | IC50 ([1]; Leishmania donovani, THP-1): 9.62 ± 1.15 µM | Selectivity index SI4 [2]: 13 | Selectivity index SI3 [2]: 5 | Specificity index SpI2 [2]: 0.83 | IC50 ([2]; Leishmania donovani, THP-1): 6.36 µM | IC50 [3, 7]: > 10 µM | IC50 ([5]; Vero cells (kidney epithelial)): 29.2 ± 5.86 µM | IC50 at 72 h [6]: 84.6 ± 2.16 µM | Selectivity Index SI1 (anticancer) [4]: 6 | IC50 (A375 melanoma cells; Homo sapiens, A-375): > 10 µM

O=[N+]([O-])c1ccc(/C=N/NS(=O)(=O)c2ccc(-c3ccccc3)cc2)o1 [2h, (E)-N'-[(5-Nitrofuran-2-yl)methylene]-(1,1'-biphenyl)-4-sulfonohydrazide]
Selectivity index SI6 [1]: 8 | Selectivity index SI5 [1]: 3 | Specificity index SpI3 [1]: 0.24 | IC50 ([1]; Leishmania donovani, THP-1): 6.29 ± 0.62 µM | Selectivity index SI4 [2]: 17 | Selectivity index SI3 [2]: 6 | Specificity index SpI2 [2]: 0.49 | IC50 ([2]; Leishmania donovani, THP-1): 2.94 ± 0.3 µM | IC50 [3, 7]: > 10 µM | IC50 ([5]; Vero cells (kidney epithelial)): 16.4 ± 5.8 µM | IC50 at 72 h [6]: 50.4 ± 2.26 µM | Selectivity Index SI1 (anticancer) [4]: 17 | Preliminary screening, growth inhibition, Clone 15 HL‐60 [4]: qualified | IC50 (A375 melanoma cells; Homo sapiens, A-375): 8.05 ± 0.57 µM | Selectivity index SI2 (anticancer) (A375 melanoma cells; IC50 Vero (Table 2)/IC50 A375): 2 | Preliminary screening, growth inhibition, A375 (A375 melanoma cells; cutoff 50% growth inhibition at 10 μM): qualified

O=[N+]([O-])c1ccc(/C=N/NS(=O)(=O)c2cccc3c2OCCO3)o1 [2l, (E)-N'-[(5-Nitrofuran-2-yl)methylene]-2,3-dihydrobenzo[b][1,4]dioxine-5-sulfonohydrazide]
Selectivity index SI6 [1]: > 13 | Selectivity index SI5 [1]: 5 | Specificity index SpI3 [1]: 0.92 | IC50 ([1]; Leishmania donovani, THP-1): 7.85 ± 0.21 µM | Selectivity index SI4 [2]: > 16 | Selectivity index SI3 [2]: 6 | Specificity index SpI2 [2]: 1.45 | IC50 ([2]; Leishmania donovani, THP-1): 6.36 µM | IC50 [3, 7]: > 10 µM | IC50 ([5]; Vero cells (kidney epithelial)): 41.2 ± 3.3 µM | IC50 at 72 h [6]: > 100 µM | IC50 ([4]; Homo sapiens, HL-60, n = 3): > 10 µM | IC50 (A375 melanoma cells; Homo sapiens, A-375): > 10 µM

O=Cc1ccc([N+](=O)[O-])o1 [NFA, 5‐nitro‐2‐furaldehyde, reference compound]
Selectivity index SI6 [1]: 9 | Selectivity index SI5 [1]: 3 | IC50 ([1]; Leishmania donovani, THP-1): 8.56 ± 0.65 µM | IC50 ([2]; Leishmania donovani, THP-1): > 10 µM | Specificity index SpI1 [3]: 0.87 | Selectivity index SI2 [3]: 10 | Selectivity index SI1 ([3]; L. major: IC50 Vero/IC50 amastigote): 3 | IC50 [3, 7]: 8.35 ± 0.89 µM | IC50 ([5]; Vero cells (kidney epithelial)): 23.2 ± 2.62 µM | IC50 ([4]; Homo sapiens, HL-60, n = 3): < 10 µM | Selectivity Index SI1 (anticancer) [4]: 2 | IC50 ([4]; n = 3): 9.45 ± 0.61 µM | IC50 (A375 melanoma cells; Homo sapiens, A-375): > 10 µM

O=C1CN(/N=C/c2ccc([N+](=O)[O-])o2)C(=O)N1 [NFT, nitrofurantoin, reference compound]
IC50 ([1]; Leishmania donovani, THP-1): 8.56 ± 1.95 µM | IC50 ([2]; Leishmania donovani, THP-1): > 10 µM | IC50 [3, 7]: > 10 µM | IC50 [5]: > 100 µM | IC50 at 72 h [6]: > 100 µM | IC50 ([4]; Homo sapiens, HL-60, n = 3): > 10 µM | IC50 (A375 melanoma cells; Homo sapiens, A-375): > 10 µM

O=C(N/N=C/c1ccc([N+](=O)[O-])o1)c1ccc(O)cc1 [NFX, Nifuroxazide, reference compound]
Selectivity index SI6 [1]: > 14 | Selectivity index SI5 [1]: > 14 | IC50 ([2]; Leishmania donovani, THP-1): > 10 µM | IC50 [3, 7]: > 10 µM | IC50 [5]: > 100 µM | IC50 at 72 h [6]: > 100 µM | IC50 ([4]; Homo sapiens, HL-60, n = 3): 8.97 ± 0.47 µM | Selectivity Index SI1 (anticancer) [4]: > 11 | IC50 (A375 melanoma cells; Homo sapiens, A-375): > 10 µM

(E)-2,4,6-Trimethyl-N'-[(5-nitrofuran-2-yl)methylene]benzenesulfonohydrazide [2e]
Selectivity index SI6 [1]: > 16 | Selectivity index SI5 [1]: 6 | Specificity index SpI3 [1]: 0.65 | IC50 [1]: 6.14 ± 0.83 µM | IC50 [2]: > 10 µM | IC50 ([3]; L. major IR‐173): > 10 µM | Preliminary screening, growth inhibition, Clone 15 HL‐60 [4]: qualified | IC50 ([4]; n = 3): > 10 µM | IC50 (A375 melanoma cells): > 10 µM
